The subject of this assay is sAPPβ release in SH-SY5Y cells. Put plainly: sAPPβ Release Assay. Type of assay: cell-based. The settings on record: Homo sapiens, 17 h. As for the experimental part:
Thaw cells and seed at a conc. of around 10000 cells/well in DMEM/F-12 with Glutamax, 10% FCS and 1% non-essential amino acids to a 384-well tissue culture treated plate, […] cell susp/well. The cell plates were then incubated for 7-24 h at 37° C., 5% CO2. The cell medium was removed, followed by addition of 30 μL compound diluted in DMEM/F-12 with Glutamax, 10% FCS, 1% non-essential amino acids and 1% PeSt to a final conc. of 1% DMSO. […] Meso Scale Discovery (MSD) plates were used for the detection of sAPPβ release. MSD sAPPβ plates were blocked in 1% BSA in Tris wash buffer (40 μL/well) for 1 h on shake at r.t. and washed 1 time in Tris wash buffer (40 μL/well). 20 μL of medium was transferred to the pre-blocked and washed MSD sAPPβ microplates, and the cell plates were further used in an ATP assay to measure cytotoxicity. The MSD plates were incubated with shaking at r.t. for 2 h and the media discarded. 10 μL detection antibody was added (1 nM) per well followed by incubation with shaking at r.t. for 2 h and then discarded. 40 μL Read Buffer was added per well and the plates were read in a SECTOR Imager.

pIC50: −log10 of the molar value.

In the case of `CC#Cc1cncc(-c2ccc3c(c2)[C@@]2(N=C(C)C(N)=N2)[C@]2(CC[C@H](OC)CC2)C3)c1` [(1r,1′R,4R)-4-methoxy-5″-methyl-6′-[5-(prop-1-yn-1-yl)pyridin-3-yl]-3′H-dispiro[cyclohexane-1,2′-indene-1′2″-imidazol]-4″-amine], the negative-log IC50 (pIC50) was 10.00.

What is called pIC50 is the IC50 on a negative log10 scale, so that one unit is a factor of ten.

The record behind these values is patent publication US20190262327A1, “COMBINATION OF A BACE INHIBITOR AND AN ANTIBODY OR ANTIGEN-BINDING FRAGMENT FOR THE TREATMENT OF A DISORDER ASSOCIATED WITH THE ACCUMULATION OF AMYLOID BETA” (ASTRAZENECA AB, priority 2016, published 2019).
